Source: ChEMBL document CHEMBL5260845, “Flavone-based arylamides as potential anticancers: Design, synthesis and in vitro cell-based/cell-free evaluations” (2020)
Activity calls are given as the source filed them. No cut-off for these calls is given here.

How the values were obtained:
[1] = system: OVCAR-8; experiment: Antiproliferative activity against human OVCAR-8 cells assessed as cell growth inhibition at 10 uM by SRB assay relative to control; assay type: functional
[2] = system: HOP-62; experiment: Antiproliferative activity against human HOP-62 cells assessed as cell growth inhibition at 10 uM by SRB assay; assay type: functional, cell-based
[3] = system: HCT-15; experiment: Antiproliferative activity against human HCT-15 cells assessed as cell growth inhibition at 10 uM by SRB assay; assay type: functional, cell-based
[4] = system: SF-295; experiment: Antiproliferative activity against human SF-295 cells assessed as cell growth inhibition at 10 uM by SRB assay relative to control; assay type: functional
[5] = system: K562; experiment: Antiproliferative activity against human K562 cells assessed as cell growth inhibition at 10 uM by SRB assay; assay type: functional, cell-based
[6] = system: ACHN; experiment: Antiproliferative activity against human ACHN cells assessed as inhibition of cell growth at 10 uM by SRB assay relative to control; assay type: functional; conditions: pooled result: one value given for 2 cell lines, strains, targets or settings
[7] = system: SR; experiment: Antiproliferative activity against human SR cells assessed as cell growth inhibition at 10 uM by SRB assay; assay type: functional, cell-based
[8] = system: HCT-116; experiment: Antiproliferative activity against human HCT-116 cells assessed as cell growth inhibition at 10 uM by SRB assay; assay type: functional, cell-based
[9] = system: LOX IMVI; experiment: Antiproliferative activity against human LOX IMVI cells assessed as cell growth inhibition at 10 uM by SRB assay relative to control; assay type: functional
[10] = system: SF-539; experiment: Antiproliferative activity against human SF-539 cells assessed as cell growth inhibition at 10 uM by SRB assay relative to control; assay type: functional
[11] = system: HOP-92; experiment: Antiproliferative activity against human HOP-92 cells assessed as cell growth inhibition at 10 uM by SRB assay; assay type: functional, cell-based
[12] = system: NCI-H522; experiment: Antiproliferative activity against human NCI-H522 cells assessed as cell growth inhibition at 10 uM by SRB assay relative to control; assay type: functional
[13] = Antiproliferative activity against human hematologic cancer cells assessed as cell growth inhibition at 10 uM by SRB assay relative to control; assay type: functional
[14] = system: CCRF-CEM; experiment: Antiproliferative activity against human CCRF-CEM cells assessed as cell growth inhibition at 10 uM by SRB assay; assay type: functional, cell-based
[15] = system: HL-60; experiment: Antiproliferative activity against human HL-60 cells assessed as cell growth inhibition at 10 uM by SRB assay; assay type: functional, cell-based
[16] = system: NCI-H226; experiment: Antiproliferative activity against human NCI-H226 cells assessed as cell growth inhibition at 10 uM by SRB assay; assay type: functional
[17] = system: SK-MEL-5; experiment: Antiproliferative activity against human SK-MEL-5 cells assessed as cell growth inhibition at 10 uM by SRB assay relative to control; assay type: functional
[18] = system: Lung cancer cell line; experiment: Antiproliferative activity against human lung cancer cells assessed as cell growth inhibition at 10 uM by SRB assay relative to control; assay type: functional
[19] = system: UACC-257; experiment: Antiproliferative activity against human UACC-257 cells assessed as cell growth inhibition at 10 uM by SRB assay relative to control; assay type: functional
[20] = system: HL-60; experiment: Antiproliferative activity against human HL-60 cells assessed as cell growth inhibition at 10 uM by SRB assay relative to control; assay type: functional
[21] = system: NCI-H322M; experiment: Antiproliferative activity against human NCI-H322M cells assessed as cell growth inhibition at 10 uM by SRB assay; assay type: functional, cell-based
[22] = system: CAKI-1; experiment: Antiproliferative activity against human CAKI-1 cells assessed as inhibition of cell growth at 10 uM by SRB assay relative to control; assay type: functional
[23] = system: COLO 205; experiment: Antiproliferative activity against human COLO 205 cells assessed as cell growth inhibition at 10 uM by SRB assay; assay type: functional, cell-based
[24] = system: A549; experiment: Antiproliferative activity against human A549 cells assessed as cell growth inhibition at 10 uM by SRB assay; assay type: functional, cell-based
[25] = system: 786-0; experiment: Antiproliferative activity against human 786-0 cells assessed as inhibition of cell growth at 10 uM by SRB assay relative to control; assay type: functional
[26] = system: SK-MEL-28; experiment: Antiproliferative activity against human SK-MEL-28 cells assessed as cell growth inhibition at 10 uM by SRB assay relative to control; assay type: functional
[27] = Antiproliferative activity against human colon cancer cells assessed as cell growth inhibition at 10 uM by SRB assay relative to control; assay type: functional; conditions: Colon carcinoma cell
[28] = system: Breast carcinoma cell; experiment: Antiproliferative activity against human breast cancer cells assessed as cell growth inhibition at 10 uM by SRB assay relative to control; assay type: functional; conditions: pooled result: one value given for 3 cell lines, strains, targets or settings
[29] = system: RPMI-8226; experiment: Antiproliferative activity against human RPMI-8226 cells assessed as cell growth inhibition at 10 uM by SRB assay; assay type: functional, cell-based
[30] = system: HT-29; experiment: Antiproliferative activity against human HT-29 cells assessed as cell growth inhibition at 10 uM by SRB assay; assay type: functional, cell-based
[31] = system: MOLT-4; experiment: Antiproliferative activity against human MOLT-4 cells assessed as cell growth inhibition at 10 uM by SRB assay; assay type: functional, cell-based
[32] = system: RPMI-8226; experiment: Antiproliferative activity against human RPMI-8226 cells assessed as cell growth inhibition by SRB assay; assay type: functional
[33] = system: NCI-H522; experiment: Antiproliferative activity against human NCI-H522 cells assessed as cell growth inhibition at 10 uM by SRB assay; assay type: functional, cell-based
[34] = system: RPMI-8226; experiment: Antiproliferative activity against human RPMI-8226 cells assessed as cell growth inhibition at 10 uM by SRB assay relative to control; assay type: functional
[35] = system: NCI-H23; experiment: Antiproliferative activity against human NCI-H23 cells assessed as cell growth inhibition at 10 uM by SRB assay; assay type: functional
[36] = system: SW-620; experiment: Antiproliferative activity against human SW620 cells assessed as cell growth inhibition at 10 uM by SRB assay; assay type: functional, cell-based
[37] = system: RXF 393; experiment: Antiproliferative activity against human RXF 393 cells assessed as inhibition of cell growth at 10 uM by SRB assay relative to control; assay type: functional
[38] = system: OVCAR-3; experiment: Antiproliferative activity against human OVCAR-3 cells assessed as cell growth inhibition at 10 uM by SRB assay relative to control; assay type: functional; conditions: pooled result: one value given for 2 cell lines, strains, targets or settings
[39] = system: HCC 2998; experiment: Antiproliferative activity against human HCC 2998 cells assessed as cell growth inhibition at 10 uM by SRB assay relative to control; assay type: functional
[40] = system: SN12C; experiment: Antiproliferative activity against human SN12C cells assessed as inhibition of cell growth at 10 uM by SRB assay relative to control; assay type: functional
[41] = system: DU-145; experiment: Antiproliferative activity against human DU-145 cells assessed as inhibition of cell growth at 10 uM by SRB assay; assay type: functional, cell-based
[42] = system: U-251; experiment: Antiproliferative activity against human U-251 cells assessed as cell growth inhibition at 10 uM by SRB assay relative to control; assay type: functional
[43] = system: KM12; experiment: Antiproliferative activity against human KM12 cells assessed as cell growth inhibition at 10 uM by SRB assay; assay type: functional, cell-based
[44] = system: IGROV-1; experiment: Antiproliferative activity against human IGROV-1 cells assessed as cell growth inhibition at 10 uM by SRB assay relative to control; assay type: functional
[45] = Antiproliferative activity against human brain cancer cells assessed as cell growth inhibition at 10 uM by SRB assay relative to control; assay type: functional

For COc1cc2oc(-c3cccc(C(=O)Nc4ccc(C)cc4)c3)cc(=O)c2c(OC)c1OC, the inhibition at 10 µM [1] was 51.8%, the inhibition [2] was “Active” and the inhibition [3] was “Active”. For the same compound, the inhibition at 10 µM [4] was 147%, the inhibition [5] was “Active” and the inhibition at 10 µM [6] was 55.7%. For the same compound, the inhibition [7] was “Active”, the inhibition [8] was “Active” and the inhibition at 10 µM [9] was 108%. For the same compound, the inhibition at 10 µM [10] was over 50%, the inhibition [11] was “Active” and the inhibition at 10 µM [12] was 93.3%. The inhibition at 10 µM [13] was 72.5%, the inhibition [14] was “Active” and the inhibition [15] was “Active”. The inhibition [16] was “Active”, the inhibition at 10 µM [17] was 108% and the inhibition at 10 µM [18] was 66.5%. For the same compound, the inhibition at 10 µM [19] was 70.1%, the inhibition at 10 µM [20] was 92.7% and the inhibition [21] was “Active”. The inhibition at 10 µM [22] was 97.8%, the inhibition [23] was “Active” and the inhibition [24] was “Active”. For the same compound, the inhibition at 10 µM [25] was 55.7%, the inhibition at 10 µM [26] was 92.9% and the inhibition at 10 µM [27] was 72.5%. For the same compound, the inhibition at 10 µM [28] was 53.4%, the inhibition [29] was “Active” and the inhibition [30] was “Active”. The inhibition [31] was “Active”, the GI50 [32] was 370 nM and the inhibition [33] was “Active”. The inhibition at 10 µM [34] was 82.6%, the inhibition [35] was “Active” and the inhibition [36] was “Active”. For the same compound, the inhibition [37] was “Active”, the inhibition at 10 µM [38] was 51.8% and the inhibition at 10 µM [39] was 50.1%. The inhibition at 10 µM [40] was 55.7%, the inhibition [41] was “Active” and the inhibition at 10 µM [42] was over 50%. For the same compound, the inhibition [43] was “Active”, the inhibition at 10 µM [44] was 51.8% and the inhibition at 10 µM [45] was 64.7%.
For COc1cc2oc(-c3cccc(C(=O)Nc4ccc(Cl)cc4)c3)cc(=O)c2c(OC)c1OC, the inhibition at 10 µM [1] was 56.9%, the inhibition [2] was “Active” and the inhibition [3] was “Active”. The inhibition at 10 µM [4] was 142%, the inhibition [5] was “Active” and the inhibition at 10 µM [6] was 61.4%. The inhibition [7] was “Active”, the inhibition [8] was “Active” and the inhibition at 10 µM [9] was 97.8%. For the same compound, the inhibition at 10 µM [10] was over 50%, the inhibition [11] was “Active” and the inhibition at 10 µM [12] was 74.8%. The inhibition at 10 µM [13] was 90%, the inhibition [14] was “Active” and the inhibition [15] was “Active”. The inhibition [16] was “Active”, the inhibition at 10 µM [17] was 107% and the inhibition at 10 µM [18] was 61.5%. The inhibition at 10 µM [19] was 107%, the inhibition at 10 µM [20] was 111% and the inhibition [21] was “Active”. For the same compound, the inhibition at 10 µM [22] was 91.8%, the inhibition [23] was “Active” and the inhibition [24] was “Active”. It also gave an inhibition at 10 µM [25] of 88%, an inhibition at 10 µM [26] of 107% and an inhibition at 10 µM [27] of 61.5%. The inhibition at 10 µM [28] was 61.5%, the inhibition [29] was “Active” and the inhibition [30] was “Active”. The inhibition [31] was “Active”, the GI50 [32] was 490 nM and the inhibition [33] was “Active”. The inhibition at 10 µM [34] was 82.6%, the inhibition [35] was “Active” and the inhibition [36] was “Active”. It also gave an inhibition at 10 µM [37] of 129%, an inhibition at 10 µM [38] of 56.9% and an inhibition at 10 µM [39] of 77.4%. The inhibition at 10 µM [40] was 61.4%, the inhibition [41] was “Active” and the inhibition at 10 µM [42] was over 50%. The inhibition [43] was “Active”, the inhibition at 10 µM [44] was 56.9% and the inhibition at 10 µM [45] was 61.5%.
